Here are results for one molecule from patent US20100197610A1, “FRUCTOSE 1, 6 BISPHOSPHATE - A NOVEL ANTICONVULSANT DRUG” (Baylor College of Medicine, priority 2007, published 2010).

This test relates to kainic acid-induced seizures. The experiment in a line: Kainic acid model of acute seizures. The test is classed as in vivo, Sprague Dawley rats. Particulars: for animals with mild seizures (wet dog shakes or head bobbing) / animals with severe seizures: 8 animals. How it is done:
All animal experiments were carried out in accordance with the National Institutes of Health guide for the care and use of laboratory animals (NIH publication 8023, revised 1996) and with the approval of the local Animal Use Committee. Unless indicated, all chemicals were obtained from Sigma Chemical Co (St. Louis Mo.). Male, Sprague Dawley rats weighing 50-74 g (young) or 147-309 g (adult) were used in this study. Acute seizures were induced by kainic acid (KA; Ocean Produce Int., Canada), pilocarpine or pentylenetetrazole (PTZ) as previously described (Lian et al 2006). These models were chosen because they initiate seizures by different mechanisms and the seizures have a relatively gradual onset compared to seizures initiated by stimulation. There was no difference in the body weight of the animals receiving the different convulsants. For pilocarpine, kainic acid and PTZ, the mean weights were 219±5 g (range 163-275 g), 215±7 g (range 183-258 g), and 216±13 g (range 147-309 g), respectively. The animals in the drug treatment groups were not different in weight from the animals in the control groups.
After administration of KA (10 mg/kg, ip), pilocarpine (scopolamine methyl bromide 1 mg/kg, s.c followed 15 min later by 300 mg/kg, ip pilocarpine) or PTZ (50 mg/kg, ip) (Lian et al., 2006), animals were continuously monitored for seizure activity for at least 5 h after KA or pilocarpine and for 30 min after PTZ. Behavioral seizures were scored by an investigator blinded to the treatment. Latency to the first wet dog shake after KA, latency to the first forelimb clonus (after pilocarpine, kainic acid or PTZ) and the score and duration of seizures were measured. When at least 1 hour had passed without any head bobbing (for pilocarpine) or any wet dog shakes (for KA), seizures were considered over. Status epilepticus lasting longer than 4 hours (for KA) or 5 hours (for pilocarpine) were assigned 4 and 5 hours for seizure duration. For animals receiving PTZ, the seizure duration was defined as the period of tonic-clonic seizures. EEG recording in the hippocampus was conducted as previously described (Lian et al., 2004). After anesthesia, a recording electrode was placed in a burr hole centered at 3.0 mm posterior to bregma, 1.8 mm lateral to the midline and then lowered 3.0 mm. A ground screw and wire was placed over the frontal region in another burr hole. This assembly was fixed to the skull with dental cement.
Each animal was assigned the score of the most severe seizure observed. The behavioral seizures induced by KA or pilocarpine were scored according to an adjusted version of the scale of Racine (Bough et al., 2002): stage 1, wet dog shakes after KA or trembling after pilocarpine; stage 2, head bobbing and stereotypes; stage 3, unilateral forelimb clonus; stage 4, bilateral forelimb clonus; stage 5, rearing and falling; stage 6, jumping and/or running followed by falling. Death within 24 h was assigned stage 7.
Adult rats received either D-F1,6BP, sodium valproate (VPA, 0.3 g/kg), 2-DG (0.25, 0.5 g/kg) or normal saline (vehicle) intraperitoneally followed 1 h later by one of the convulsants. The dose for VPA was based on experimental evidence that doses from 0.1 to 0.4 g/kg (ip) are effective in animal models (Bough and Eagles, 2001; Manent et al., 2007). Three doses of F1,6BP (0.25, 0.5 and 1 g/kg) were tested with this dosing schedule. Two additional groups were administered F1,6BP (0.5 or 1 g/kg, n=5) after pilocarpine. In this experiment, the F1,6BP was given intraperitoneally at the first behavioral seizure, which was chewing movements of the jaw. Two additional sets of animals were fed the classic ketogenic diet (No. F3666; Bio-Serv, Frenchtown, N.J.). One set of animals was given the diet beginning on postnatal day 22-26 (KD-Yng) and maintained on this diet for 4 weeks. Thus the seizures were tested in this group when the animals had reached approximately the same age (50-54 days) as the majority of the animals tested. […]

Turning to `O=C(COP(=O)(O)O)[C@@H](O)[C@H](O)[C@H](O)COP(=O)(O)O` [F1,6BP, Fructose-1,6-bisphosphate], the “effect on the seizures” value (F1,6BP 0.25 g/kg, n=6) was “no effect”. Moreover, under “F1,6BP 0.5 g/kg”, the “animals with no seizures” value is “Two out of 8”, the mean seizure score stood at 2.5±0.5, the “animals with mild seizures (wet dog shakes or head bobbing)” value is listed as “three” and the “animals with severe seizures” value amounted to 3. Further, for the setting “F1,6BP 0.5 or 1 g/kg”, the onset of seizures result was “significantly delayed”, the seizure duration result is reported as “decreased” and the seizure score result is listed as “decreased”. Moreover, for the setting “F1,6BP 1 g/kg”, the “animals with no seizures” value is given as “Three out of 8”, the “average seizure score for the entire group” value is 1.4±0.5, the “mean latency to first forelimb clonus” value turned out to be 105 ± 7 min and the “animals with mild seizures (wet dog shakes or head bobbing)” value came out at 3. For the same molecule, for the setting “F1,6BP 1 g/kg”, the “animals with severe seizures” value was found to be 2.
